According to patent publication US11274124B2, “Tubulysin analogues as anticancer agents and payloads for antibody-drug conjugates and methods of treatment therewith” (William Marsh Rice University, priority 2017, dated 2022):
Where two headings read alike, the source gives them in different places.

How the values were obtained:
[1] = tested on: HEK 293T (human embryonic kidney cancer cell line); assay: In vitro cytotoxicity assay (CellTiter-Glo, 72 hours), HEK 293T; type: cell-based
[2] = tested on: MES SA (uterine sarcoma cell line); assay: In vitro cytotoxicity assay (CellTiter-Glo, 72 hours), MES SA; type: cell-based
[3] = tested on: MES SA DX (MES SA cell line with marked multi-drug resistance); assay: In vitro cytotoxicity assay (CellTiter-Glo, 72 hours), MES SA DX
[4] = Homo sapiens, HEK-293T, 72 h, read-out: HEK 293T, IC50 Value in nM
[5] = Homo sapiens, MES-SA, 72 h, read-out: MES SA, IC50 Value in nM
[6] = Homo sapiens, MES-SA, 72 h, read-out: MES SA DX, IC50 Value in nM
[7] = Homo sapiens, HEK-293T, 72 h, read-out: HEK 293T, IC50
[8] = Homo sapiens, MES-SA, 72 h, read-out: MES SA, IC50
[9] = Homo sapiens, MES-SA, 72 h, read-out: MES SA DX, IC50

| Compound | IC50 [1, 4] [nM] | IC50 [2, 5] [nM] | IC50 [3, 6] [nM] | IC50 [1, 7] [nM] | IC50 [2, 8] [nM] | IC50 [3, 9] [nM] | IC50 ([1]; Table 2, 72 hours, CellTiter-Glo, read-out: HEK 293T, IC50 Value in nM) [nM] | IC50 ([2]; Table 2, 72 hours, CellTiter-Glo, read-out: MES SA, IC50 Value in nM) [nM] | IC50 ([3]; read-out: MES SA DX, IC50 Value in nM, Table 2, 72 hours, CellTiter-Glo) [nM] | cytotoxicities against the marked drug resistant cancer cell line MES SA DX (in words) [3] |
| --- | --- | --- | --- | --- | --- | --- | --- | --- | --- | --- |
| COC(=O)[C@@H](C)C[C@H](Cc1ccccc1)NC(=O)c1nc([C@@H](C[C@H](C(C)C)N(C)C(=O)[C@@H](NC(=O)[C@H]2CC(=O)CCN2C)C(C)C)OC(C)=O)sc1C(C)C [Tb75, Methyl (2S,4R)-4-[({2-[(1R,3R)-1-acetoxy-4-methyl-3-{methyl[(2S)-3-methyl-2-({[(2R)-1-methyl-4-oxopiperidin-2-yl]carbonyl}amino)butanoyl]amino}pentyl]-5-isopropyl-1,3-thiazol-4-yl}carbonyl)-amino]-2-methyl-5-phenylpentanoate] | 127 | ≥ 400 | > 400 |  |  |  |  |  |  |  |
| CCCCN1CCCC[C@@H]1C(=O)N[C@H](C(=O)N(C)[C@H](C[C@@H](OC(C)=O)c1nc(C(=O)N[C@@H](Cc2cn(C)c3ccccc23)C[C@H](C)C(=O)OC)cs1)C(C)C)[C@@H](C)CC [Tb57, Methyl (2S,4R)-4-[({2-[(1R,3R)-1-acetoxy-3-{[(2S,3S)-2-({[(2R)-1-butylpiperidin-2-yl]carbonyl}-amino)-3-methylpentanoyl](methyl)amino}-4-methylpentyl]-1,3-thiazol-4-yl}carbonyl)amino]-2-methyl-5-(1-methyl-1H-indol-3-yl)pentanoate] | > 1000 | > 1000 | > 1000 |  |  |  |  |  |  |  |
| COC(=O)[C@@H](C)C[C@H](Cc1ccccc1)NC(=O)c1csc([C@@H](C[C@H](C(C)C)N(C)C(=O)[C@@H](NC(=O)[C@H]2CCCCN2C)C(C(F)(F)F)C(F)(F)F)OC(C)=O)n1 [Tb79, Methyl (2S,4R)-4-[({2-[(1R,3R)-1-acetoxy-4-methyl-3-{methyl[(2S)-4,4,4-trifluoro-2-({[(2R)-1-meth-ylpiperidin-2-yl]carbonyl}amino)-3-(trifluoromethyl)butanoyl]amino}pentyl]-1,3-thiazol-4-yl}carbonyl)amino]-2-methyl-5-phenylpentanoate] | 36.4 | 39.1 | > 1000 |  |  |  |  |  |  |  |
| COC(=O)[C@@H](C)C[C@H](Cc1ccccc1)NC(=O)c1csc(CC[C@H](C(C)C)N(C)C(=O)[C@@H](NC(=O)[C@H]2CCCCN2C)C(C)C)n1 [PTb-D48] | > 1000 | > 1000 | > 1000 |  |  |  |  |  |  |  |
| CC(=O)O[C@H](C[C@H](C(C)C)N(C)C(=O)[C@H](NC(=O)[C@H]1CCCCN1C)C(C(F)(F)F)C(F)(F)F)c1nc(C(=O)N[C@@H](Cc2ccccc2)C[C@H](C)C(=O)O)cs1 [Tb87, (2S,4R)-4-[({2-[(1R,3R)-1-Acetoxy-4-methyl-3-{methyl[(2R)-4,4,4-trifluoro-2-({[(2R)-1-methyl-piperidin-2-yl]carbonyl}amino)-3-(trifluoromethyl)butanoyl]amino}pentyl]-1,3-thiazol-4-yl}carbonyl)amino]-2-methyl-5-phenylpentanoic acid] | > 1000 | 234 | > 1000 |  |  |  |  |  |  |  |
| COC(=O)[C@@H](CO)C[C@H](Cc1ccccc1)NC(=O)c1csc([C@@H](C[C@H](C(C)C)N(C)C(=O)[C@@H](NC(=O)[C@H]2CCCCN2C)C(C)C)OC(C)=O)n1 [Tb119, Methyl (2R,4R)-4-{2-[(1R,3R)-1-acetoxy-3-{(S)—N,3-dimethyl-2-[(R)-1-methylpiperidine-2-carboxamido]butanamido}-4-methylpentyl]thiazole-4-carboxamido}-2-(hydroxymethyl)-5-phenylpentanoate] | 0.041 | 0.093 | > 14 | 0.041 | 0.093 | > 14 |  |  |  |  |
| CC[C@H](C)[C@H](NC(=O)[C@H]1CCCCN1C)C(=O)N(C)[C@H](C[C@@H](OC(C)=O)c1nc(C(=O)N[C@@H](Cc2ccccc2)C[C@H](C)C(=O)O)cs1)C(C)C [Tb1, N^14-desacetoxytubulysin H, reference compound] |  |  |  |  |  |  | 0.02 | 0.34 | > 10 |  |
| CCCCN1CCCC[C@@H]1C(=O)N[C@H](C(=O)N(C)[C@H](C[C@@H](OC(C)=O)c1nc(C(=O)N[C@@H](Cc2ccccc2)CC(CO)C(=O)OC)cs1)C(C)C)[C@@H](C)CC (stereo partly drawn) [Tb56, Methyl (4R)-4-[({2-[(1R,3R)-1-acetoxy-3-{[(2S,3S)-2-({[(2R)-1-butylpiperidin-2-yl]carbonyl}amino)-3-methylpentanoyl](methyl)amino}-4-methylpentyl]-1,3-thiazol-4-yl}carbonyl)amino]-2-(hydroxy-methyl)-5-phenylpentanoate] | > 1000 | > 1000 | > 1000 |  |  |  |  |  |  |  |
| COC(=O)C(CC(Cc1ccccc1)NC(=O)c1csc([C@@H](CC(C(C)C)N(C)C(=O)[C@@H](NC(=O)[C@H]2CCCCN2C)C(C)C)OC(C)=O)n1)NC(=O)OCc1ccccc1 (stereo in doubt) [Tb116, Methyl(2R,4R)-4-[({2-[(1R,3S)-1-acetoxy-4-methyl-3-{methyl[(2S)-3-methyl-2-{[(1-methylpiperidin-2-yl)carbonyl]amino}butanoyl]amino}pentyl]-1,3-thiazol-4-yl}carbonyl)amino]-2-{[(benzyloxy)carbonyl]amino}-5-phenylpentanoate] | 0.003 | 0.007 | 6 | 0.003 | 0.007 | 6 |  |  |  | relatively potent (low nanomolar) |
| COC(=O)[C@@H](C)C[C@H](Cc1ccccc1)NC(=O)c1csc([C@@H](C[C@H](C(C)C)N(C)C(=O)[C@H](C)NC(=O)[C@H]2CCCN2C)OC(C)=O)n1 [Tb90, Methyl (2S,4R)-4-[({2-[(1R,3R)-1-acetoxy-4-methyl-3-{methyl[(2S)-2-({[(2R)-1-methylpyrrolidin-2-yl]carbonyl}amino)propanoyl]amino}pentyl]-1,3-thiazol-4-yl}carbonyl)amino]-2-methyl-5-phenylpentanoate] | 636 | > 1000 | > 1000 |  |  |  |  |  |  |  |
| COC(=O)[C@H](C[C@H](Cc1ccccc1)NC(=O)c1csc([C@@H](C[C@H](C(C)C)N(C)C(=O)[C@@H](NC(=O)[C@H]2CCCCN2C)C(C)C)OC(C)=O)n1)N(C)C [Tb117, Methyl (2S)-4-{[(2-{1-acetoxy-4-methyl-3-[methyl(3-methyl-2-{[(1-methylpiperidin-2-yl)carbonyl]-amino}butanoyl)amino]pentyl}-1,3-thiazol-4-yl)carbonyl]amino}-2-(dimethylamino)-5-phenylpentanoate] | 0.059 | 0.099 | 4.63 | 0.059 | 0.099 | 4.63 |  |  |  |  |
| CC(=O)O[C@H](C[C@H](C(C)C)N(C)C(=O)[C@H](C)NC(=O)[C@H]1CCCN1C)c1nc(C(=O)N[C@@H](Cc2ccccc2)C[C@H](C)C(=O)O)cs1 [Tb92, (2S,4R)-4-[({2-[(1R,3R)-1-Acetoxy-4-methyl-3-{methyl[(2S)-2-({[(2R)-1-methylpyrrolidin-2-yl]car-bonyl}amino)propanoyl]amino}pentyl]-1,3-thiazol-4-yl}carbonyl)amino]-2-methyl-5-phenylpentanoic acid] | > 1000 | > 1000 | > 1000 |  |  |  |  |  |  |  |
| COC(=O)C12CC(NC(=O)c3csc([C@@H](C[C@H](C(C)C)N(C)C(=O)[C@@H](NC(=O)[C@H]4CCCCN4C)C4CC4)OC(C)=O)n3)(C1)C2 [Tb100, Methyl 3-{[(2-{1-acetoxy-3-[(cyclopropyl{[(1-methylpiperidin-2-yl)carbonyl]amino}acetyl)(methyl)-amino]-4-methylpentyl}-1,3-thiazol-4-yl)carbonyl]amino}bicyclo[1.1.1]pentane-1-carboxylate] | 16.5 | 15.2 | > 1000 |  |  |  |  |  |  |  |
